Reference: US20200290950A1, “ALKAMIDE COMPOUNDS AND USES THEREOF” (NORTH CAROLINA STATE UNIVERSITY, priority 2017, published 2020)

How the values were obtained:
[1] = test system: RAW 264.7 cells; conditions: LPS-stimulated RAW 264.7 cells, literature; cited from earlier work
[2] = Paw withdrawal latency to heat, cold and touch after topical administration; format: in vivo; conditions: topical in mineral oil on mouse paws
Experimental: FIG. 12. Antinociceptive effect of topical administration of alkamide A15. Measured paw withdrawal latency to Hargreave's (A) cold assay using dry ice (B) and touch using von-Frey (C). Data were analyzed using parametric evaluation (AUC).
Several different model systems were utilized for these experiments. In one model, dorsal root ganglia were obtained from mice and the neurons cultured in vitro. The neurons were then stimulated in the presence/absence of A15 and YM8-85 and the calcium responses monitored by fluorescence microscopy. In the second model, the alkamides were applied to mouse skin in mineral oil. The reactions of these mice to heat, cold, and tactile stimulation was then compared with mice that had not received treatment with A15. In a third model, mice were sensitized to the chemical compound toluene-2,4-diisocyanate (TDI). TDI is an industrial chemical which causes hypersensitive skin lesions and itching in exposed humans and animals. The physiological response to TDI is complex involving type 2 T lymphocytes, cytokines, mast cells, and neurons. Alkamides were applied to sensitized animals and then ear swelling and bouts of scratching were monitored.
In vivo responses to painful stimuli. A15 was tested with mice to determine whether the in vitro inhibitory responses noted in FIG. 11 are also seen in vivo. A15 was mixed in mineral oil and added to mouse paws prior to stimulation with heat, cold, or touch. […] Sensations of touch are mediated by distinct families of mechanoreceptors which are apparently unaffected by A15.

[3] = test system: RAW 264.7 macrophage-like cells; assay: Fluo-4 calcium assay, RAW 264.7 cells; format: cell-based, mouse; conditions: 1 μM A23187, 100 μM A15, at 1 min
Experimental: FIGS. 4A-4D. A15 inhibits A23187-stimulated calcium influx in RAW 264.7 and Jurkat cells. RAW 264.7 (FIG. 4A-4B) or Jurkat cells (FIG. 4C-4D) were loaded with fluo-4 AM using the Fluo-4 AM Direct™ Calcium Assay Kit and fluorescence was measured on a microplate reader. Cells were stimulated with 1 μM A23187 in combination with vehicle only or 100 μM A15. Bar graphs represent the means±SEM of the Δ in RFU's at 1 min post-A23187 stimulation from 3 independent experiments. Statistical analysis was performed using an unpaired Student's t-test, *p<0.05.
RBL-2H3, BMMC, RAW 264.7, or Jurkat cells were plated in clear-bottom, black, 96-well plates (BioExpress, Kaysville, Utah) and incubated overnight with media only or media containing IgE anti-DNP. […] Prior to stimulation, baseline fluorescent readings were measured from triplicate wells in 5 s intervals for 1 min using a Synergy HT microplate reader with 485/20 nm excitation and 528/20 nm emission filters. Cells were then treated with either 1 μM A23187 or 50 ng/mL DNP-BSA prepared in calcium- and magnesium-containing or calcium- and magnesium-free HBSS with 20 mM HEPES, and fluorescence was measured in 10 s intervals for 2 min. […] The average baseline fluorescence of each well was subtracted from the stimulated fluorescent values to calculate the change (Δ) in RFU's and graphed as shown.

[4] = test system: RBL-2H3 cells; assay: Histamine release, competitive EIA; format: cell-based, rat; conditions: RBL-2H3 cells treated with A23187, 1 hr
Experimental: FIGS. 1A-1F. A15 inhibits BMMC and RBL-2H3 cell degranulation. The structure of alkamide A15 is shown with different functional groups and carbons in the fatty acid chain labeled (FIG. 1A). BMMCs were plated and stimulated 4 hrs later with 1 μM A23187 and the indicated concentrations of A15 or vehicle only. The percent degranulation was measured after 1 hr (FIG. 1B). RBL-2H3 cells were treated with A23187 and the percent degranulation was determined 1 hr later (FIG. 1C) or every 10 min over a 1 hr time course (FIG. 1D). RBL-2H3 cells were plated and incubated for 4 hrs before the media was aspirated and replaced with media containing 1 μg/mL IgE anti-DNP. Cells were incubated overnight and washed prior to stimulation. The percent degranulation from RBL-2H3 cells was calculated after stimulation with 50 ng/mL DNP-HSA in combination with the indicated concentrations of A15 or vehicle only after 1 hr (FIG. 1E). RBL-2H3 cells were stimulated for 1 hr in Tyrode's buffer before supernatants were collected and levels of histamine were measured using a competitive inhibition EIA kit (FIG. 1F). Data shown are the means±SEM from 3-4 independent experiments (FIG. 1B, FIG. 1C and FIG. 1F) or the means±SEM of triplicate wells from a representative experiment from 3 independent experiments (FIG. 1D and FIG. 1E). […]

SMILES: CCCCCCC/C=C/C=C/C(=O)NCC(C)C [A15, (2E,4E)-N-Isobutyldodeca-2,4-dienamide]
- TNF-α production [1]: best inhibitors
- paw withdrawal latency to cold (dry ice) [2]: increased withdrawal latency
- paw withdrawal latency to heat (Hargreave's) [2]: increased withdrawal latency
- touch latency (von-Frey) [2]: did not affect touch latency
- suppression of calcium influx [3]: 60.2%
- release of histamine [4]: inhibited the release of the vasoactive amine histamine
